Test results published in patent US20050119281A1, “Powder composition comprising zaleplon of defined particle size distribution and pharmaceutical products made therefrom” (Biogal Gyogyszergyar Rt, priority 2002, published 2005).

Assay: Particle size distribution of zaleplon particles by laser diffraction (Malvern Mastersizer)
Assay type: physicochemical
Details: suspended in hexane with 1% Tween 80, sonicated 120 seconds
Protocol: In accordance with the invention, the size distribution of zaleplon particles is determined by laser diffraction. Our method of determining the size of zaleplon particles used a Malvern™ Mastersizer laser diffraction instrument. Samples of the zaleplon were suspended in hexane containing a surfactant, 1% Tween® 80. The suspensions were mixed and then sonicated for 120 seconds to thoroughly disperse the zaleplon particles. The dispersion was then circulated in the flow cell of the Malvern Mastersizer for two minutes before particle size measurements were taken.

CCN(C(C)=O)c1cccc(-c2ccnc3c(C#N)cnn23)c1 [micronized zaleplon, N-[3-(3-cyanopyrazolo[1,5-a]pyrimidin-7-yl)phenyl]-N-ethylacetamide]
diameter that 90% of the particles are equal to or less than: 15.1 μm | median particle size: 6.3 μm

CCN(C(C)=O)c1cccc(-c2ccnc3c(C#N)cnn23)c1 [Zaleplon, N-[3-(3-cyanopyrazolo[1,5-a]pyrimidin-7-yl)phenyl]-N-ethylacetamide]
diameter that 10% of the particles are equal to or less than: 14 μm | diameter that 90% of the particles are equal to or less than: 134 μm | median particle size: 55 μm

CCN(C(C)=O)c1cccc(-c2ccnc3c(C#N)cnn23)c1 [milled zaleplon, N-[3-(3-cyanopyrazolo[1,5-a]pyrimidin-7-yl)phenyl]-N-ethylacetamide]
diameter that 10% of the particles are equal to or less than: 8.3 μm | diameter that 90% of the particles are equal to or less than: 84.6 μm | median particle size: 37.0 μm
